The target in the assay is T1, Alpha-fucosidase-like protein (Bacteroides thetaiotaomicron (strain ATCC 29148 / DSM 2079 / JCM 5827 / CCUG 10774 / NCTC 10582 / VPI-5482 / E50), UniProt Q8ABG8).
T1 sequence (Q8ABG8 whole entry): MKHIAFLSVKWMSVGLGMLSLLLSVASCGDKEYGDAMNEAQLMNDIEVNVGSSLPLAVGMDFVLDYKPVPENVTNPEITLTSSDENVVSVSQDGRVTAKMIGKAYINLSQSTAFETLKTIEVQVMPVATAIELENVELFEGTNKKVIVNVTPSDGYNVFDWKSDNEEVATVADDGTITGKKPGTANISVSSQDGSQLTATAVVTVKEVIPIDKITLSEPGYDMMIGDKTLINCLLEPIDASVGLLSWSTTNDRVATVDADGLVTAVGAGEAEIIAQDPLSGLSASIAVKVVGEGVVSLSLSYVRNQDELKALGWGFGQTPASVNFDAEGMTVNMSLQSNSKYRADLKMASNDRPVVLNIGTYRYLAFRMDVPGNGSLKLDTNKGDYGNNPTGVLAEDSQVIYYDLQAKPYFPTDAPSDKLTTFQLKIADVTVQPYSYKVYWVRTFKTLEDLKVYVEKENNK
Kind of assay: Enzyme Assay. The note with it: 37 °C. The protocol: The kinetic studies involving a spectrophotometric product were conducted by monitoring the change in UV/visible absorbance with a Cintra 10 spectrophotometer.

Consider `C[C@@H]1NC[C@@H](O)[C@H](O)[C@@H]1O`, for which binding (pH 6) was put at a Kd of 14.8 nM, the Kd (pH 6.5) turned out to be 27 nM and binding (pH 8.5) was characterised by a dissociation constant (Kd) of 372 nM.

Compound `CC1NC(CNC(=O)c2cccc3c2C(=O)c2ccccc2-3)C(O)C(O)C1O` (stereo not given) [Fucosidase Inhibitor, 4] came in with a Kd (pH 6) of 46.6 nM and a Kd (pH 8.5) of 157 nM.

The term Kd denotes the concentration at which binding is half-saturated.
